Here are results for 56 molecules from patent USRE46630E1, “Substituted 4-pyridones and their use as inhibitors of neutrophil elastase activity” (Boehringer Ingelheim International GmbH, priority 2012, dated 2017).

The target of this test is T1, Human neutrophil elastase (Homo sapiens, UniProt P08246).
T1 construct: purchased Calbiochem 324681
T1 sequence (P08246 30-267): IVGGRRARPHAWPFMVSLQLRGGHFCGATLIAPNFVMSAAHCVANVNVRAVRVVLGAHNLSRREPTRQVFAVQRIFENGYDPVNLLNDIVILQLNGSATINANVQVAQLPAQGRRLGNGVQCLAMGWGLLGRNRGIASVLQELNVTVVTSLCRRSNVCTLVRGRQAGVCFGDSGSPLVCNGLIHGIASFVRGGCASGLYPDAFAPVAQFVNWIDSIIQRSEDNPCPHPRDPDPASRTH
The test is described as follows: Human Neutrophil Elastase Assay. The format is biochemical. As to conditions: Neutrophil Elastase assay; substrate MeOSuc-Ala-Ala-Pro-Val-AMC 250 μM; 15 min preincubation, 60 min incubation at room temperature; pH 7.5. The protocol:
Human Neutrophil Elastase Assay
All other materials were of the highest grade commercially available.
The following buffers were used: Compound buffer: 100 mM Tris, 500 mM NaCl, adjusted to pH 7.5; Assay buffer: 100 mM Tris, 500 mM NaCl, adjusted to pH 7.5, containing 0.01% BSA.
Assay conditions: Test compounds were prediluted in DMSO and subsequently in compound buffer (5% DMSO final). […] After inactivation of the enzyme, fluorescence intensities were measured at 380 nm excitation and 460 nm emission wavelengths.
Each plate contains wells with a high value control (DMSO+enzyme+substrate) and wells with a low value control (DMSO+inactivated enzyme+substrate). […] Means of low values were taken as 0%, means of high values as 100%.

The molecule `Cc1c(-c2ccnc(C(F)(F)F)c2)c(=O)c(C(=O)NCc2ccc(S(C)(=O)=O)cc2)cn1Cc1ccc(C#N)cn1` [Example 5.1] showed an IC50 of 2.8 nM.

In turn, `Cc1c(-c2ccnc(C(F)(F)F)c2)c(=O)c(C(=O)NCc2ccc(S(C)(=O)=O)cc2)cn1Cc1ccc(C#N)c(F)c1` [Example 5.2] had an IC50 of 1.2 nM.

The molecule `Cc1c(-c2ccnc(C(F)(F)F)c2)c(=O)c(C(=O)NCc2ccc(S(C)(=O)=O)cc2)cn1Cc1ccc(C#N)cc1F` [Example 5.3] yielded an IC50 of 1.4 nM.

Molecule `Cc1c(-c2ccccc2)c(=O)c(C(=O)NCc2ccc(S(C)(=O)=O)cc2)cn1Cc1ccc(C#N)cc1` [Example 6.1, 1-(4-Cyano-benzyl)-6-methyl-4-oxo-5-phenyl-1,4-dihydro-pyridine-3-carboxylic acid 4-methanesulfonyl-benzylamide] came in with an IC50 of 44.5 nM.

Molecule `Cc1cccc(-c2c(C)n(Cc3ccc(C#N)cc3)cc(C(=O)NCc3ccc(S(C)(=O)=O)cc3)c2=O)c1` [Example 6.2] displayed an IC50 of 1.5 nM.

With `Cc1cc(-c2c(C)n(Cc3ccc(C#N)cc3)cc(C(=O)NCc3ccc(S(C)(=O)=O)cc3)c2=O)ccn1` [Example 6.3], the IC50 amounted to 9.1 nM. This IC50 is about 6.1-fold higher than that of the molecule before.

As for `Cc1cncc(-c2c(C)n(Cc3ccc(C#N)cc3)cc(C(=O)NCc3ccc(S(C)(=O)=O)cc3)c2=O)c1` [Example 6.4], the IC50 was found to be 19.3 nM.

Consider `Cc1c(-c2cccc(F)c2)c(=O)c(C(=O)NCc2ccc(S(C)(=O)=O)cc2)cn1Cc1ccc(C#N)cc1` [Example 6.5], for which the IC50 turned out to be 9.6 nM.

For the molecule `COc1cc(-c2c(C)n(Cc3ccc(C#N)cc3)cc(C(=O)NCc3ccc(S(C)(=O)=O)cc3)c2=O)ccn1` [Example 6.6], inhibition was half-maximal at 38.6 nM (IC50).

On to `COc1cncc(-c2c(C)n(Cc3ccc(C#N)cc3)cc(C(=O)NCc3ccc(S(C)(=O)=O)cc3)c2=O)c1` [Example 6.7], for which inhibition was half-maximal at 75.3 nM (IC50).

`Cc1c(-c2cccc(Cl)c2)c(=O)c(C(=O)NCc2ccc(S(C)(=O)=O)cc2)cn1Cc1ccc(C#N)cc1` [Example 6.8]: the IC50 is below 1 nM.

Molecule `Cc1c(-c2cncc(Cl)c2)c(=O)c(C(=O)NCc2ccc(S(C)(=O)=O)cc2)cn1Cc1ccc(C#N)cc1` [Example 6.9] registered an IC50 of 3.8 nM. In other words, the single-digit nanomolar range.

`Cc1c(-c2cccc(C(F)F)c2)c(=O)c(C(=O)NCc2ccc(S(C)(=O)=O)cc2)cn1Cc1ccc(C#N)cc1` [Example 6.10]: the IC50 was below 1 nM.

Molecule `Cc1c(-c2ccnc(C(F)(F)F)c2)c(=O)c(C(=O)NCc2ccc(S(C)(=O)=O)cc2)cn1Cc1ccc(C#N)cc1` [Example 6.11] yielded an IC50 below 1 nM.

Take `Cc1c(-c2cc(C(F)(F)F)ccn2)c(=O)c(C(=O)NCc2ccc(S(C)(=O)=O)cc2)cn1Cc1ccc(C#N)cc1` [Example 6.12]: half-maximal inhibition (IC50) was put at 3.8 nM.

In the case of `Cc1c(-c2cncc(C(F)(F)F)c2)c(=O)c(C(=O)NCc2ccc(S(C)(=O)=O)cc2)cn1Cc1ccc(C#N)cc1` [Example 6.13], the IC50 turned out to be 2.5 nM.

The molecule `Cc1c(-c2cccc(C(F)(F)F)c2)c(=O)c(C(=O)NCCCN(C)C)cn1C(C)c1ccc(C#N)cc1` (centres unmarked) [Example 7.1] came in with an IC50 of 4.1 nM.

`Cc1noc(CNC(=O)c2cn(C(C)c3ccc(C#N)cc3)c(C)c(-c3cccc(C(F)(F)F)c3)c2=O)n1` (centres unmarked) [Example 7.2] yielded an IC50 of 2.5 nM. Against the preceding molecule, the IC50 is about 1.6-fold lower.

Molecule `Cc1c(-c2cccc(C(F)(F)F)c2)c(=O)c(C(=O)NCCCS(C)(=O)=O)cn1C(C)c1ccc(C#N)cc1` (centres unmarked) [Example 7.3] had an IC50 of 1.3 nM.

For the molecule `Cc1c(-c2cccc(C(F)(F)F)c2)c(=O)c(C(=O)NCCCO)cn1C(C)c1ccc(C#N)cc1` (centres unmarked) [Example 7.4], it took 1.8 nM to reach half-maximal inhibition (IC50).

`Cc1nnc(CNC(=O)c2cn(C(C)c3ccc(C#N)cc3)c(C)c(-c3cccc(C(F)(F)F)c3)c2=O)o1` (centres unmarked) [Example 7.5] came in with an IC50 of 1.4 nM.

The molecule `Cc1c(-c2cccc(C(F)(F)F)c2)c(=O)c(C(=O)NCCS(C)(=O)=O)cn1C(C)c1ccc(C#N)cc1` (centres unmarked) [Example 7.6] had an IC50 of 1.2 nM.

In the case of `Cc1c(-c2cccc(C(F)(F)F)c2)c(=O)c(C(=O)NC2CNC(=O)C2)cn1C(C)c1ccc(C#N)cc1` (centres unmarked) [Example 7.7], 2.4 nM corresponded to half-maximal inhibition (IC50).

`Cc1c(-c2cccc(C(F)(F)F)c2)c(=O)c(C(=O)NCC[S+](C)[O-])cn1C(C)c1ccc(C#N)cc1` (centres unmarked) [Example 7.8] displayed an IC50 of 1.3 nM.

As for `Cc1c(-c2cccc(C(F)(F)F)c2)c(=O)c(C(=O)NCCO)cn1C(C)c1ccc(C#N)cc1` (centres unmarked) [Example 7.9], the IC50 is 2.3 nM.

In turn, `Cc1c(-c2cccc(C(F)(F)F)c2)c(=O)c(C(=O)NC2CCN(C)C2=O)cn1C(C)c1ccc(C#N)cc1` (centres unmarked) [Example 7.10] gave an IC50 of 2 nM. The IC50 values of the last two molecules are within 1.5-fold of each other.

On to `Cc1c(-c2cccc(C(F)(F)F)c2)c(=O)c(C(=O)NC2CCNC2=O)cn1C(C)c1ccc(C#N)cc1` (centres unmarked) [Example 7.12], for which the IC50 was determined as 1.5 nM.

For `Cc1c(-c2cccc(C(F)(F)F)c2)c(=O)c(C(=O)NCC(C)O)cn1C(C)c1ccc(C#N)cc1` (centres unmarked) [Example 7.13], it took 4 nM to reach half-maximal inhibition (IC50).

`Cc1c(-c2cccc(C(F)(F)F)c2)c(=O)c(C(=O)NCC(C)O)cn1C(C)c1ccc(C#N)cc1` (centres unmarked) [Example 7.14] had an IC50 of 4.7 nM.

As to `Cc1c(-c2cccc(C(F)(F)F)c2)c(=O)c(C(=O)NCC(C)(C)O)cn1C(C)c1ccc(C#N)cc1` (centres unmarked) [Example 7.15], the IC50 came out at 10.3 nM. This IC50 lies about 2.2-fold higher than the previous one.

As for `Cc1c(-c2cccc(C(F)(F)F)c2)c(=O)c(C(=O)NCC2(O)CC2)cn1C(C)c1ccc(C#N)cc1` (centres unmarked) [Example 7.16], the IC50 stood at 17.9 nM.

Consider `Cc1c(-c2cccc(C(F)(F)F)c2)c(=O)c(C(N)=O)cn1C(C)c1ccc(C#N)cc1` (centres unmarked) [Example 7.17], for which the IC50 stood at 18.5 nM.

The molecule `Cc1c(-c2cccc(C(F)(F)F)c2)c(=O)c(C(=O)NCC#N)cn1C(C)c1ccc(C#N)cc1` (centres unmarked) [Example 7.18] had an IC50 below 1 nM.

Turning to `Cc1c(-c2cccc(C(F)(F)F)c2)c(=O)c(C(=O)NC2COC2)cn1C(C)c1ccc(C#N)cc1` (centres unmarked) [Example 7.19], the IC50 is 4.1 nM. This counts as single-digit nanomolar.

The molecule `Cc1c(-c2cccc(C(F)(F)F)c2)c(=O)c(C(=O)NCC(F)F)cn1C(C)c1ccc(C#N)cc1` (centres unmarked) [Example 7.20] had an IC50 of 3.6 nM.

The molecule `Cc1c(-c2cccc(C(F)F)c2)c(=O)c(C(=O)NCCCN(C)C)cn1C(C)c1ccc(C#N)cc1` (centres unmarked) [Example 8.1] had an IC50 of 4.1 nM.

In turn, `Cc1noc(CNC(=O)c2cn(C(C)c3ccc(C#N)cc3)c(C)c(-c3cccc(C(F)F)c3)c2=O)n1` (centres unmarked) [Example 8.2] displayed a concentration for half-maximal inhibition (IC50) of 1.9 nM.

`Cc1c(-c2cccc(C(F)F)c2)c(=O)c(C(=O)NCCCS(C)(=O)=O)cn1C(C)c1ccc(C#N)cc1` (centres unmarked) [Example 8.3] gave an IC50 of 1.3 nM.

`Cc1c(-c2cccc(C(F)F)c2)c(=O)c(C(=O)NCCCO)cn1C(C)c1ccc(C#N)cc1` (centres unmarked) [Example 8.4] gave an IC50 of 1.8 nM.

Molecule `Cc1nnc(CNC(=O)c2cn(C(C)c3ccc(C#N)cc3)c(C)c(-c3cccc(C(F)F)c3)c2=O)o1` (centres unmarked) [Example 8.5] showed an IC50 of 1.2 nM.

`Cc1c(-c2cccc(C(F)F)c2)c(=O)c(C(=O)NC2CNC(=O)C2)cn1C(C)c1ccc(C#N)cc1` (centres unmarked) [Example 8.7] yielded an IC50 of 1.7 nM.

Molecule `Cc1c(-c2cccc(C(F)F)c2)c(=O)c(C(=O)NCC[S+](C)[O-])cn1C(C)c1ccc(C#N)cc1` (centres unmarked) [Example 8.8] displayed an IC50 of 1.1 nM.

`Cc1c(-c2cccc(C(F)F)c2)c(=O)c(C(=O)NCCO)cn1C(C)c1ccc(C#N)cc1` (centres unmarked) [Example 8.9] gave an IC50 of 1.9 nM.

`Cc1c(-c2cccc(C(F)F)c2)c(=O)c(C(=O)NC2CCN(C)C2=O)cn1C(C)c1ccc(C#N)cc1` (centres unmarked) [Example 8.10]: the IC50 was 1.6 nM.

On to `Cc1c(-c2cccc(C(F)F)c2)c(=O)c(C(=O)NCCN(C)C)cn1C(C)c1ccc(C#N)cc1` (centres unmarked) [Example 8.11], for which half-maximal inhibition (IC50) was put at 4.3 nM.

Molecule `Cc1c(-c2cccc(C(F)F)c2)c(=O)c(C(=O)NC2CCNC2=O)cn1C(C)c1ccc(C#N)cc1` (centres unmarked) [Example 8.12] came in with an IC50 of 1.4 nM.

Molecule `Cc1c(-c2cccc(C(F)F)c2)c(=O)c(C(=O)NCCCCO)cn1C(C)c1ccc(C#N)cc1` (centres unmarked) [Example 8.13] had an IC50 of 3.2 nM.

`Cc1c(-c2cccc(C(F)F)c2)c(=O)c(C(=O)NCc2cnn(C)c2)cn1C(C)c1ccc(C#N)cc1` (centres unmarked) [Example 8.14] registered an IC50 of 3.6 nM.

The molecule `Cc1c(-c2cccc(C(F)F)c2)c(=O)c(C(=O)NCCn2cccn2)cn1C(C)c1ccc(C#N)cc1` (centres unmarked) [Example 8.15] registered an IC50 of 4.4 nM.

In turn, `Cc1c(-c2cccc(C(F)F)c2)c(=O)c(C(=O)NCc2ccnn2C)cn1C(C)c1ccc(C#N)cc1` (centres unmarked) [Example 8.16] had an IC50 of 2.4 nM.

Molecule `Cc1c(-c2cccc(C(F)F)c2)c(=O)c(C(=O)NCc2ccno2)cn1C(C)c1ccc(C#N)cc1` (centres unmarked) [Example 8.17] returned an IC50 of 3.1 nM. The IC50 values of the last two molecules are within 1.5-fold of each other.

For `Cc1c(-c2cccc(C(F)F)c2)c(=O)c(C(=O)NCc2cccnc2)cn1C(C)c1ccc(C#N)cc1` (centres unmarked) [Example 8.18], it took 2.4 nM to reach half-maximal inhibition (IC50).

For the molecule `Cc1c(-c2cccc(C(F)F)c2)c(=O)c(C(=O)NCc2ccccn2)cn1C(C)c1ccc(C#N)cc1` (centres unmarked) [Example 8.19], the IC50 turned out to be 1.7 nM.

In turn, `Cc1c(-c2cccc(C(F)F)c2)c(=O)c(C(=O)NCc2ccncc2)cn1C(C)c1ccc(C#N)cc1` (centres unmarked) [Example 8.20] showed an IC50 of 1 nM.

`CCNC(=O)c1cn(C(C)c2ccc(C#N)cc2)c(C)c(-c2cccc(C(F)F)c2)c1=O` (centres unmarked) [Example 8.21]: the IC50 worked out at 3 nM.

Regarding `Cc1c(-c2cccc(C(F)F)c2)c(=O)c(C(N)=O)cn1C(C)c1ccc(C#N)cc1` (centres unmarked) [Example 8.22], the IC50 came out at 21.6 nM.

For orientation: IC50 means the concentration at which inhibition is half-maximal. Higher therefore signals weaker potency.
